Test results taken from patent US4108991A, “N-aminosulfenyl derivatives of aldicarb” (priority 1976, dated 1978).

Tests used:
Plum curculio = experiment: Initial contact activity, spray, plum curculio; assay type: in vivo, Conotrachelus nenuphar [Herbst]; conditions: Conotrachelus nenuphar, initial, PC, 48 hours, read-out: Percent Kill
Experimental: (§1) Initial Contact Activity: One half gram of test compound was dissolved in 40 ml of acetone and this solution was dispersed in 360 ml of water containing one drop of isooctylphenyl polyethoxyethanol. Aliquots of this solution, which corresponds to 1250 ppm of active ingredient, were diluted with an appropriate amount of water to provide solutions containing various concentrations of active ingredient. Test organisms and techniques were as follows: The activity against the Mexican bean beetle (Epilachna varivestis Muls.) and the southern armyworm (Spodoptera eridania [Cram.]) was evaluated by dipping the leaves of pinto bean plants into the test solution and infesting the leaves with the appropriate immature-form insects when the foiliage had dried; the activity against the pea aphid (Acyrthosiphon pisum [Harris]) was evaluated on broad bean plants whose leaves were dipped before infestation with adult aphids; the activity against two-sotted spider mites (Tetranychus urticae Koch) was evaluated on pinto bean plants whose leaves were dipped after infestation with adult mites; the activity against the milkweed bug (Oncopeltus fasciatus [Dallas]), and the plum curculio (Conotrachelus nenuphar [Herbst]) was evaluated by spraying the test solutions into glass dishes or jars containing the adult insects; the activity against the confused flour beetle (Tribolium confusum duVal) was evaluated by introducing the insects into glass dishes which had been previously sprayed with test solution and allowed to dry. All organisms in the test were maintained in a holding room at 80° F and 50% relative humidity for an exposure period of 48 hours. At the end of this time, the dead and living insects or mites were counted, and the percent kill was calculated.

Milkweed bug [1] = experiment: Initial contact activity, spray, milkweed bug; assay type: in vivo, Oncopeltus fasciatus [Dallas]; conditions: Oncopeltus fasciatus, 48 h, initial, MWB, 48 hours, read-out: Percent Kill
Experimental: as §1

Two-spotted spider mite [2] = experiment: Systemic activity, soil-watering, two-spotted spider mite; assay type: in vivo, Tetranychus urticae Koch; conditions: Tetranychus urticae, 48 h, systemic, SM, read-out: Percent Kill
Experimental: as §1
(§2) Systemic Activity: Systemic activity was measured using a soil-watering technique. Test organisms were Mexican bean beetle, southern armyworm, pea aphid, and mites on plants as described above in this Example. With appropriate precautions to avoid contact of the solution with the test plant surfaces, 25 ml of a test solution, prepared as above to contain the desired amount of active ingredient, were poured evenly over the surface of the soil in which the plant was growing. The treated plants were maintained under normal growing conditions for three days to permit translocation of the toxicant, after which the leaves were infested. Two days after infestation, counts of living and dead insects were made.

Pea aphid [3] = experiment: Systemic activity, soil-watering, pea aphid; assay type: in vivo, Acyrthosiphon pisum [Harris]; conditions: Acyrthosiphon pisum, 48 h, systemic, PA, read-out: Percent Kill
Experimental: as §1, §2

Two-spotted spider mite [4] = experiment: Residual (7-day) contact activity, two-spotted spider mite; assay type: in vivo, Tetranychus urticae Koch; conditions: Tetranychus urticae, 168 h, residual 7-day, SM, read-out: Percent Kill
Experimental: as §1
(§3) Residual Contact Activity: The residual contact activity of the compounds was determined on the same organisms using the techniques described above, except that in each case the treated surface was allowed to dry and was exposed to normal light and air for seven days before introduction of the mites or insects.

Granary Weevil = experiment: Residual (7-day) contact activity, granary weevil; assay type: in vivo; conditions: Sitophilus granarius, 168 h, residual 7-day, GW, read-out: Percent Kill
[5] = Toxicity to rats, acute oral median lethal dose (LD50), Method A; assay type: in vivo, young female albino rats, derived from Sprague-Dawley stock; conditions: in vivo, rat, corn oil, 14 days observation
Experimental: (§4) Method A: Young female albino rats, derived from Sprague-Dawley stock and weighing between 175 and 200 g, were used. An initial screening was conducted to determine the general level of toxicity of the test compounds and to establish the dosing range to be used with each compound. The test materials were suspended in corn oil and administered directly into the stomachs of the rats, using a hypodermic syringe equipped with a ball-tipped intubating needle. A range of dosing levels was employed utilizing two rats at each level. […] This method was used to determine the toxicity to rats of the compounds of Examples I, II, and III and aldicarb.

rats = experiment: as above; assay type: in vivo, young female albino rats, derived from Sprague-Dawley stock; conditions: rat; for Enhancement LD50 Derivative/LD50 Aldicarb: ratio to aldicarb
Experimental: as §4

Southern armyworm = experiment: Systemic activity, soil-watering, southern armyworm; assay type: in vivo, Spodoptera eridania [Cram.]; conditions: Spodoptera eridania, 48 h, systemic, AW, read-out: Percent Kill
Experimental: as §1, §2

Milkweed bug [6] = experiment: Residual (7-day) contact activity, milkweed bug; assay type: in vivo, Oncopeltus fasciatus [Dallas]; conditions: Oncopeltus fasciatus, 168 h, residual 7-day, MWB, read-out: Percent Kill
Experimental: as §1, §3

Pea aphid [7] = experiment: Initial contact activity, leaf dip, pea aphid; assay type: in vivo, Acyrthosiphon pisum [Harris]; conditions: Acyrthosiphon pisum, foliar, 48 h, initial, PA, 48 hours, read-out: Percent Kill
Experimental: as §1

Mexican bean beetle [8] = experiment: Initial contact activity, leaf dip, Mexican bean beetle; assay type: in vivo, Epilachna varivestis Muls.; conditions: Epilachna varivestis, foliar, 48 h, initial, BB, 48 hours, read-out: Percent Kill
Experimental: as §1

Confused flour beetle = experiment: Initial contact activity, sprayed dishes, confused flour beetle; assay type: in vivo, Tribolium confusum duVal; conditions: Tribolium confusum, initial, FB, 48 hours, read-out: Percent Kill
Experimental: as §1

Mexican bean beetle [9] = experiment: Residual (7-day) contact activity, Mexican bean beetle; assay type: in vivo, Epilachna varivestis Muls.; conditions: Epilachna varivestis, 168 h, residual 7-day, BB, read-out: Percent Kill
Experimental: as §1, §3

Mexican bean beetle [10] = experiment: Systemic activity, soil-watering, Mexican bean beetle; assay type: in vivo, Epilachna varivestis Muls.; conditions: Epilachna varivestis, 48 h, systemic, BB, read-out: Percent Kill
Experimental: as §1, §2

For `CSC(C)(C)C=NOC(=O)N(C)SN(C)Cc1ccccc1` [Example I, 2-methyl-2-(methylthio)propanol O-[(N-benzyl-N-methylaminosulfenyl)(methyl)carbamoyl]oxime], the mortality at 10 ppm (Plum curculio) was 10%, the mortality at 39 ppm (Plum curculio) was 0% and the mortality at 156 ppm (Plum curculio) was 0%. The mortality at 1250 ppm (Plum curculio) was 45%, the mortality at 10 ppm (Milkweed bug [1]) was 5% and the mortality at 39 ppm (Milkweed bug [1]) was 80%. For the same molecule, the mortality at 156 ppm (Milkweed bug [1]) was 100%, the mortality at 1250 ppm (Milkweed bug [1]) was 100% and the mortality at 2.5 ppm (Two-spotted spider mite [2]) was 0.9%. For the same molecule, the mortality at 5 ppm (Two-spotted spider mite [2]) was 2.3%, the mortality at 10 ppm (Two-spotted spider mite [2]) was 4.3% and the mortality at 10 ppm (Pea aphid [3]) was 0%. For the same molecule, the mortality at 39 ppm (Pea aphid [3]) was 100%, the mortality at 156 ppm (Two-spotted spider mite [4]) was 3.2% and the mortality at 312 ppm (Two-spotted spider mite [4]) was 63%. It also gave a mortality at 1250 ppm (Two-spotted spider mite [4]) of 99.5%, a mortality at 312 ppm (Granary Weevil) of 41% and a mortality at 1250 ppm (Granary Weevil) of 100%. The LD50 at 336 h [5] was 9.4 mg/kg, the “LD50 relative to that of aldicarb” value (rats) was 19 times and the “Enhancement LD50 Derivative/LD50 Aldicarb” value (rats) was 19. It also gave a mortality at 312 ppm (Southern armyworm) of 50%, a mortality at 625 ppm (Southern armyworm) of 84% and a mortality at 156 ppm (Milkweed bug [6]) of 90%. It also gave a mortality at 312 ppm (Milkweed bug [6]) of 95%, a mortality at 1250 ppm (Milkweed bug [6]) of 100% and a mortality at 10 ppm (Pea aphid [7]) of 20%. The mortality at 39 ppm (Pea aphid [7]) was 62%, the mortality at 156 ppm (Pea aphid [7]) was 100% and the mortality at 1250 ppm (Pea aphid [7]) was 100%. The mortality at 156 ppm (Mexican bean beetle [8]) was 82%, the mortality at 312 ppm (Mexican bean beetle [8]) was 94% and the mortality at 625 ppm (Mexican bean beetle [8]) was 100%. The mortality at 1250 ppm (Mexican bean beetle [8]) was 100%, the mortality at 156 ppm (Confused flour beetle) was 5% and the mortality at 312 ppm (Confused flour beetle) was 5%. For the same molecule, the mortality at 1250 ppm (Confused flour beetle) was 2.5%, the mortality at 312 ppm (Mexican bean beetle [9]) was 0% and the mortality at 1250 ppm (Mexican bean beetle [9]) was 89%. The mortality at 39 ppm (Mexican bean beetle [10]) was 0% and the mortality at 156 ppm (Mexican bean beetle [10]) was 75%.

In the case of `CSC(C)(C)C=NOC(=O)N(C)SN1CCOCC1` [Example II, 2-methyl-2-(methylthio)propanol O-[(N-methyl-N-morpholinosulfenyl)carbamoyl]oxime], the mortality at 10 ppm (Plum curculio) is reported as 0%, the mortality at 39 ppm (Plum curculio) is reported as 5% and the mortality at 156 ppm (Plum curculio) is reported as 47%. It also gave a mortality at 1250 ppm (Plum curculio) of 100%, a mortality at 10 ppm (Milkweed bug [1]) of 25% and a mortality at 39 ppm (Milkweed bug [1]) of 100%. For the same molecule, the mortality at 156 ppm (Milkweed bug [1]) was 100%, the mortality at 1250 ppm (Milkweed bug [1]) was 100% and the mortality at 5 ppm (Two-spotted spider mite [2]) was 1.4%. The mortality at 10 ppm (Two-spotted spider mite [2]) was 38%, the mortality at 39 ppm (Two-spotted spider mite [2]; 39 PPM) was 69% and the mortality at 10 ppm (Pea aphid [3]) was 40%. It also gave a mortality at 39 ppm (Pea aphid [3]) of 100%, a mortality at 156 ppm (Two-spotted spider mite [4]) of 76% and a mortality at 312 ppm (Two-spotted spider mite [4]) of 93%. For the same molecule, the mortality at 1250 ppm (Two-spotted spider mite [4]) was 97%, the mortality at 312 ppm (Granary Weevil) was 20% and the mortality at 1250 ppm (Granary Weevil) was 100%. For the same molecule, the LD50 at 336 h [5] was 1.2 mg/kg, the “LD50 relative to that of aldicarb” value (rats) was 2.4 times and the “Enhancement LD50 Derivative/LD50 Aldicarb” value (rats) was 2.4. It also gave a mortality at 312 ppm (Southern armyworm) of 100%, a mortality at 625 ppm (Southern armyworm) of 100% and a mortality at 156 ppm (Milkweed bug [6]) of 100%. The mortality at 312 ppm (Milkweed bug [6]) was 100%, the mortality at 1250 ppm (Milkweed bug [6]) was 100% and the mortality at 10 ppm (Pea aphid [7]) was 78%. It also gave a mortality at 39 ppm (Pea aphid [7]) of 100%, a mortality at 156 ppm (Pea aphid [7]) of 100% and a mortality at 1250 ppm (Pea aphid [7]) of 100%. The mortality at 156 ppm (Mexican bean beetle [8]) was 100%, the mortality at 312 ppm (Mexican bean beetle [8]) was 100% and the mortality at 625 ppm (Mexican bean beetle [8]) was 100%. The mortality at 1250 ppm (Mexican bean beetle [8]) was 100%, the mortality at 156 ppm (Confused flour beetle) was 5% and the mortality at 312 ppm (Confused flour beetle) was 51%. It also gave a mortality at 1250 ppm (Confused flour beetle) of 80%, a mortality at 312 ppm (Mexican bean beetle [9]) of 88% and a mortality at 1250 ppm (Mexican bean beetle [9]) of 100%. It also gave a mortality at 39 ppm (Mexican bean beetle [10]) of 58% and a mortality at 156 ppm (Mexican bean beetle [10]) of 100%.

Work on `CCCCN(CCCC)SN(C)C(=O)ON=CC(C)(C)SC` [Example III, 2-methyl-2-(methylthio)propanal O-[(dibutylaminosulfenyl)(methyl)carbamoyl]oxime] yielded a mortality at 10 ppm (Plum curculio) of 0%, a mortality at 39 ppm (Plum curculio) of 5% and a mortality at 156 ppm (Plum curculio) of 0%. The mortality at 1250 ppm (Plum curculio) was 55%, the mortality at 10 ppm (Milkweed bug [1]) was 5% and the mortality at 39 ppm (Milkweed bug [1]) was 16%. For the same molecule, the mortality at 156 ppm (Milkweed bug [1]) was 100%, the mortality at 1250 ppm (Milkweed bug [1]) was 100% and the mortality at 2.5 ppm (Two-spotted spider mite [2]) was 0.9%. The mortality at 5 ppm (Two-spotted spider mite [2]) was 0%, the mortality at 10 ppm (Two-spotted spider mite [2]) was 0.7% and the mortality at 10 ppm (Pea aphid [3]) was 0%. It also gave a mortality at 39 ppm (Pea aphid [3]) of 64%, a mortality at 156 ppm (Two-spotted spider mite [4]) of 18% and a mortality at 312 ppm (Two-spotted spider mite [4]) of 45%. For the same molecule, the mortality at 1250 ppm (Two-spotted spider mite [4]) was 100%, the mortality at 312 ppm (Granary Weevil) was 0% and the mortality at 1250 ppm (Granary Weevil) was 17%. The LD50 at 336 h [5] was 12.5 mg/kg, the “LD50 relative to that of aldicarb” value (rats) was 25 times and the “Enhancement LD50 Derivative/LD50 Aldicarb” value (rats) was 25. The mortality at 312 ppm (Southern armyworm) was 0%, the mortality at 625 ppm (Southern armyworm) was 68% and the mortality at 156 ppm (Milkweed bug [6]) was 20%. For the same molecule, the mortality at 312 ppm (Milkweed bug [6]) was 70%, the mortality at 1250 ppm (Milkweed bug [6]) was 100% and the mortality at 10 ppm (Pea aphid [7]) was 53%. For the same molecule, the mortality at 39 ppm (Pea aphid [7]) was 19%, the mortality at 156 ppm (Pea aphid [7]) was 100% and the mortality at 1250 ppm (Pea aphid [7]) was 100%. It also gave a mortality at 156 ppm (Mexican bean beetle [8]) of 40%, a mortality at 312 ppm (Mexican bean beetle [8]) of 63% and a mortality at 625 ppm (Mexican bean beetle [8]) of 95%. The mortality at 1250 ppm (Mexican bean beetle [8]) was 100%, the mortality at 156 ppm (Confused flour beetle) was 0% and the mortality at 312 ppm (Confused flour beetle) was 7.5%. It also gave a mortality at 1250 ppm (Confused flour beetle) of 70%, a mortality at 312 ppm (Mexican bean beetle [9]) of 0% and a mortality at 1250 ppm (Mexican bean beetle [9]) of 92%. For the same molecule, the mortality at 39 ppm (Mexican bean beetle [10]) was 20% and the mortality at 156 ppm (Mexican bean beetle [10]) was 100%.
